Here are results for 5 compounds from article PMC7180638, “Synthesis of Pyrrolidine Monocyclic Analogues of Pochonicine and Its Stereoisomers: Pursuit of Simplified Structures and Potent β-N-Acetylhexosaminidase Inhibition” (Molecules, 2020).

Structures can show the parent of a compound that is named as a salt. Where two headings read alike, the source gives them in different places.

What is called IC50 is the concentration that inhibits the measured activity by half.

Holding throughout (format): biochemical
The target in one assay is Rat intestinal maltase. The assay can be described thus: Rat intestinal maltase inhibition. As to conditions: α-Glucosidase. As for the experimental part:
(§1) With rat intestinal maltase as an exception, other enzymes were purchased from Sigma-Aldrich Chemical Co. (St. Louis, MO, USA). Brush border membranes prepared from rat small intestine according to the method of Kessler et al. were assayed at pH 6.8 for rat intestinal maltase using maltose. The released D-glucose was determined colorimetrically using the Glucose CII-test Wako (Wako Pure Chemical Ind.; Osaka, Japan). Other glycosidase activities were determined using an appropriate p-nitrophenyl glycoside as substrate in a buffer solution at the optimal pH value of each enzyme. The reaction was stopped by adding 400 mM Na2CO3. The released p-nitrophenol was measured spectrometrically at 400 nm.

The target in assay [1] is T1, β-Glucuronidase (Bovine liver) (Bos taurus, UniProt A3KMY8).
T1 construct: purchased Sigma-Aldrich Chemical Co; host or cells: bovine liver
T1 sequence (A3KMY8 1-652): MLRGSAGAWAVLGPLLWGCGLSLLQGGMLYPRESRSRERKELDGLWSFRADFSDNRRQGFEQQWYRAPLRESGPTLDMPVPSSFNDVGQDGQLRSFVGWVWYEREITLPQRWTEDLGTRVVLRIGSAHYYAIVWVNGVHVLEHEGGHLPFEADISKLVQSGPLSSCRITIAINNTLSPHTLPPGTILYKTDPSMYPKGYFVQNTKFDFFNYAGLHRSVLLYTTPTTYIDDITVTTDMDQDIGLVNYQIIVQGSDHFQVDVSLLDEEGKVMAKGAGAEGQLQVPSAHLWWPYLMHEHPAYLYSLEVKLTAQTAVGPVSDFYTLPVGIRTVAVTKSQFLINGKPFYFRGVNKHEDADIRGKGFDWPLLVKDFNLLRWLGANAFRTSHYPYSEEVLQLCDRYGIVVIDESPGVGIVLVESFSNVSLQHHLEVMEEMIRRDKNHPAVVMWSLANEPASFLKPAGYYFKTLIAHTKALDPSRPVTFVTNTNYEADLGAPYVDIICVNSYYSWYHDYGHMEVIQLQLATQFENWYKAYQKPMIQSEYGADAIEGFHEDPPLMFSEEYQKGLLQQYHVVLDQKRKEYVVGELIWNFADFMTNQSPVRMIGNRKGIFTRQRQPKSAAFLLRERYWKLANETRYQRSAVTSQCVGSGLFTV
Description: β-Glucuronidase (bovine liver) inhibition. As for the experimental part: as §1

Another assay deals with β-Mannosidase (Snail). The assay can be described thus: β-Mannosidase (snail) inhibition. As for the experimental part:
as §1

In assay [2] the target is β-N-Acetylhexosaminidase (Jack bean). Description: β-N-Acetylhexosaminidase (Jack bean) inhibition. As to conditions: for IC50: β-N-Acetylhexosaminidase (β-GlcNAcase). As for the experimental part: as §1
Assay [3] deals with T2, α-N-Acetylgalactosaminidase (Chicken liver) (Gallus gallus, UniProt Q90744).
T2 construct: purchased Sigma-Aldrich Chemical Co; host or cells: chicken liver
T2 sequence (Q90744 1-405): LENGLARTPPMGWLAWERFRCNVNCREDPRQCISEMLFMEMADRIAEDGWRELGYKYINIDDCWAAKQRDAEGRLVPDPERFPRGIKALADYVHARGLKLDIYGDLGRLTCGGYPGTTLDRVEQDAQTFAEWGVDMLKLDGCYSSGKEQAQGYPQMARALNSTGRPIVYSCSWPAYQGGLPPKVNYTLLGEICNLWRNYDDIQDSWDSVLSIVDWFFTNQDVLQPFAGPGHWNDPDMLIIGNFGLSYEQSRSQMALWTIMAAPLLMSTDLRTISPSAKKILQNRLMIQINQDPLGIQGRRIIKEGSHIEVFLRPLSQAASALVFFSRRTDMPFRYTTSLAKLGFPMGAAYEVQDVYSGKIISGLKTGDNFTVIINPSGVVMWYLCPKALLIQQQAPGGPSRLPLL
The assay can be described thus: α-N-Acetylgalactosaminidase (chicken liver) inhibition. As for the experimental part:
as §1

Another assay addresses T3, α-Glucosidase (Rice) (Oryza sativa subsp. japonica, UniProt Q653V7).
T3 construct: purchased Sigma-Aldrich Chemical Co
Description: α-Glucosidase (rice) inhibition. Here is the method: as §1

Assay [4] deals with β-N-Acetylhexosaminidase (HL60). Description: β-N-Acetylhexosaminidase (HL60) inhibition. As to conditions: for IC50: β-N-Acetylhexosaminidase (β-GlcNAcase); for Inhibition % at 1000 μM: β-N-Acetylhexosaminidase. As for the experimental part:
as §1

The target of another assay is β-Glucosidase (Almond). Description: β-Glucosidase (almond) inhibition. As for the experimental part: as §1
In assay [5] the target is T4, α,α-Trehalase (Porcine kidney) (Sus scrofa, UniProt I3LIR5).
T4 construct: purchased Sigma-Aldrich Chemical Co; host or cells: porcine kidney
T4 sequence (I3LIR5 24-583): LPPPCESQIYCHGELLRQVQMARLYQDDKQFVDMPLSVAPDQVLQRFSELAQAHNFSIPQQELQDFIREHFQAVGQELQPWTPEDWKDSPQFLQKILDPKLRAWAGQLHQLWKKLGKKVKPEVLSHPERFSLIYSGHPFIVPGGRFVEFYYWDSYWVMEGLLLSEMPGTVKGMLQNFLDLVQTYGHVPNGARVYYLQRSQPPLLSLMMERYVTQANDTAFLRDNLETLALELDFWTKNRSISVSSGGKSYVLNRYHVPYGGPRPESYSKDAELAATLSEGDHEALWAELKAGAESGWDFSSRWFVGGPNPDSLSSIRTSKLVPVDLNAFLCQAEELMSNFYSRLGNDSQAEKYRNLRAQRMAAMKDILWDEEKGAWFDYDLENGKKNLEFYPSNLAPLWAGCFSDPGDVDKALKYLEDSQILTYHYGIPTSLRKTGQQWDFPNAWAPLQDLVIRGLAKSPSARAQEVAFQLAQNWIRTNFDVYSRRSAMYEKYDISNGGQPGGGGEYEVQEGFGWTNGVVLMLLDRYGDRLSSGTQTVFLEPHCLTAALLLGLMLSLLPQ
Description: α,α-Trehalase (porcine kidney) inhibition. As for the experimental part: as §1

The target of assay [6] is T5, α-Galactosidase (Coffee beans) (Coffea arabica, UniProt Q42656).
T5 construct: purchased Sigma-Aldrich Chemical Co
T5 sequence (Q42656 16-378): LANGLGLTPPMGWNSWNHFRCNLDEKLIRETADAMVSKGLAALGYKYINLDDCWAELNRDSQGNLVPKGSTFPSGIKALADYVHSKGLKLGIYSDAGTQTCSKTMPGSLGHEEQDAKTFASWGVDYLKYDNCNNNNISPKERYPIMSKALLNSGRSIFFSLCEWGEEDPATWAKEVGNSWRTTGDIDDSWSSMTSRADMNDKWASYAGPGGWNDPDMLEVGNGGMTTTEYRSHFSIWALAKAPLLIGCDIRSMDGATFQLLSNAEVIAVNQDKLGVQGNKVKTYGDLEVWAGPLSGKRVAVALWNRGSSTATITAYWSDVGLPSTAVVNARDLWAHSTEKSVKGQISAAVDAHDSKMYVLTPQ
The assay can be described thus: α-Galactosidase (coffee beans) inhibition. As for the experimental part:
as §1

Assay [7] deals with β-N-Acetylgalactosaminidase (HL60). The assay can be described thus: β-N-Acetylgalactosaminidase (HL60) inhibition. Here is the method:
as §1

Setting [8] is: 1000 μM, read-out: Inhibition % at 1000 μM.

T3 sequence (Q653V7 34-885): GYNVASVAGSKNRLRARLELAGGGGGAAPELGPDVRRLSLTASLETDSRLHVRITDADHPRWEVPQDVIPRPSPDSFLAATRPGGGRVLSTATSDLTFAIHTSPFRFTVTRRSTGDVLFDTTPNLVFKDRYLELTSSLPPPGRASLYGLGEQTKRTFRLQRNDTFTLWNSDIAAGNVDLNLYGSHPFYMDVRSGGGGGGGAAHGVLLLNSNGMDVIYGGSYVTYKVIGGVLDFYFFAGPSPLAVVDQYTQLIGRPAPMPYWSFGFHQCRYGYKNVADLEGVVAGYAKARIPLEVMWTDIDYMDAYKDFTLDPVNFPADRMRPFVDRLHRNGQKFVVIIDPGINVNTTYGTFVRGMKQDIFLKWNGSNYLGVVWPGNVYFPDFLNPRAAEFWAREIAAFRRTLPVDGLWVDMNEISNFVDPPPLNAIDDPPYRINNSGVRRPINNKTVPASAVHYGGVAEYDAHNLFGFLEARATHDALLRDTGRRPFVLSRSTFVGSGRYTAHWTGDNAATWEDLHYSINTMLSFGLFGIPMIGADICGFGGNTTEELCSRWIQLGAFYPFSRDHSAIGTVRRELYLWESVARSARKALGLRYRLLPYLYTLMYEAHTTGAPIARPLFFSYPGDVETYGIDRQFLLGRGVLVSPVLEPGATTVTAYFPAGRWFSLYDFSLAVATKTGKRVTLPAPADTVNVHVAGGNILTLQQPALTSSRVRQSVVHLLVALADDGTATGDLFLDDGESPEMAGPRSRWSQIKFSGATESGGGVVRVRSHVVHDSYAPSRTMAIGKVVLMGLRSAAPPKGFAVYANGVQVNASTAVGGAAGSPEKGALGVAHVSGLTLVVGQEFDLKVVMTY

As for `CC(=O)NC[C@H]1N[C@H](CO)[C@@H](O)[C@@H]1O` [4·HCl, 1-N-acetylamino-2,5-imino-1,2,5-trideoxy-D-mannitol hydrochloride], the IC50 on Rat intestinal maltase (read-out: IC50) amounted to 211 µM; on β-Mannosidase (Snail) (read-out: IC50), 296 µM; in [2] (read-out: IC50), 0.21 µM; against α-Glucosidase (Rice), 1000 µM; in assay [4] (read-out: IC50) it was 34 µM; on β-Glucosidase (Almond) (read-out: IC50) it was 170 µM. Also, the IC50 in [7] (read-out: IC50) was 9.5 µM. Also, the inhibition at 1000 µM in assay [1] (setting [8]) is 1.7%; in assay [1] (read-out: IC50), under 50%; in assay [3] (setting [8]), 3.3%; in assay [3] (read-out: IC50), under 50%; in assay [5] (setting [8]), 20.3%; in assay [5] (read-out: IC50) it was under 50%. Moreover, the inhibition at 1000 µM in assay [6] (setting [8]) is 1.1%; in [6] (read-out: IC50), under 50%.

Consider `CC(=O)NC[C@@H]1N[C@H](CO)[C@H](O)[C@H]1O` [F-10a, 1-N-acetylamino-2,5-imino-1,2,5-trideoxy-L-glucitol hydrochloride], for which the IC50 entry (against Rat intestinal maltase; at β-Mannosidase (Snail); in [2]; in assay [4]; on β-Glucosidase (Almond); in assay [7]) was “NI (No Inhibition (less than 50% at 1000 μM))” in each case. Further, the “Inhibition % at 1000 μM” value is given as 14.6% in the assay on Rat intestinal maltase; 3.23% in the assay on β-Mannosidase (Snail); 42% in [2] (β-N-Acetylhexosaminidase, 1000 μM); 0% in [4]; 11.6% in the assay on β-Glucosidase (Almond); 0.9% in assay [7]. The inhibition at 1000 µM was 0% in assay [1] (setting [8]); under 50% in assay [1] (read-out: IC50); 0% in assay [3] (setting [8]); under 50% in assay [3] (read-out: IC50); 12.5% on α-Glucosidase (Rice) (setting [8]); under 50% on α-Glucosidase (Rice) (read-out: IC50). In addition, the inhibition at 1000 µM was 3% in assay [5] (setting [8]), under 50% in assay [5] (read-out: IC50), 0.36% in [6] (setting [8]) and under 50% in [6] (read-out: IC50).

With `CC(=O)NC[C@@H]1N[C@@H](CO)[C@@H](O)[C@@H]1O` [E-10b, 1-N-acetylamino-2,5-imino-1,2,5-trideoxy-L-iditol hydrochloride], the IC50 entry was “NI (No Inhibition (less than 50% at 1000 μM))” on Rat intestinal maltase; “NI (No Inhibition (less than 50% at 1000 μM))” against β-Mannosidase (Snail); 115 µM in assay [2] (read-out: IC50); “NI (No Inhibition (less than 50% at 1000 μM))” in assay [4]; “NI (No Inhibition (less than 50% at 1000 μM))” against β-Glucosidase (Almond); “NI (No Inhibition (less than 50% at 1000 μM))” in assay [7]. In addition, the “Inhibition % at 1000 μM” value in the assay with Rat intestinal maltase was found to be 0%; in the assay with β-Mannosidase (Snail), 0%; in assay [4], 4.5%; in the assay on β-Glucosidase (Almond) it was 1.2%; in [7], 10.1%. Further, the inhibition at 1000 µM is 4.3% in assay [1] (setting [8]); under 50% in assay [1] (read-out: IC50); 0.5% in assay [3] (setting [8]); under 50% in assay [3] (read-out: IC50); 0% on α-Glucosidase (Rice) (setting [8]); under 50% on α-Glucosidase (Rice) (read-out: IC50). Besides, the inhibition at 1000 µM in assay [5] (setting [8]) was 0%; in assay [5] (read-out: IC50), under 50%; in [6] (setting [8]) it was 0%; in assay [6] (read-out: IC50), under 50%.

For `CC(=O)NC[C@@H]1N[C@@H](CO)[C@@H](O)[C@H]1O` [C-10, 1-N-acetylamino-2,5-imino-1,2,5-trideoxy-L-altritol hydrochloride], the IC50 entry is “NI (No Inhibition (less than 50% at 1000 μM))” against Rat intestinal maltase; “NI (No Inhibition (less than 50% at 1000 μM))” on β-Mannosidase (Snail); 129 µM in assay [2] (read-out: IC50); “NI (No Inhibition (less than 50% at 1000 μM))” in assay [4]; “NI (No Inhibition (less than 50% at 1000 μM))” against β-Glucosidase (Almond); “NI (No Inhibition (less than 50% at 1000 μM))” in assay [7]. Moreover, the “Inhibition % at 1000 μM” value with Rat intestinal maltase is reported as 35.4%; in the assay with β-Mannosidase (Snail), 0%; in assay [4] it was 3.9%; with β-Glucosidase (Almond) it was 0%; in assay [7] it was 1.4%. Besides, the inhibition at 1000 µM in [1] (setting [8]) is 0%; in assay [1] (read-out: IC50) it was under 50%; in assay [3] (setting [8]), 6.1%; in [3] (read-out: IC50), under 50%; on α-Glucosidase (Rice) (setting [8]) it was 18.2%; at α-Glucosidase (Rice) (read-out: IC50), under 50%. Moreover, the inhibition at 1000 µM in [5] (setting [8]) was 0%; in [5] (read-out: IC50), under 50%; in assay [6] (setting [8]), 0.36%; in assay [6] (read-out: IC50), under 50%.

Turning to `CC(=O)NC[C@H]1N[C@@H](CO)[C@H](O)[C@@H]1O` [G-10, 1-N-acetylamino-2,5-imino-1,2,5-trideoxy-D-allitol hydrochloride], the IC50 entry at Rat intestinal maltase is “NI (No Inhibition (less than 50% at 1000 μM))”; against β-Mannosidase (Snail) it was “NI (No Inhibition (less than 50% at 1000 μM))”; in assay [2] (read-out: IC50) it was 26 µM; in assay [4], “NI (No Inhibition (less than 50% at 1000 μM))”; on β-Glucosidase (Almond) it was “NI (No Inhibition (less than 50% at 1000 μM))”; in assay [7], “NI (No Inhibition (less than 50% at 1000 μM))”. For the same compound, the “Inhibition % at 1000 μM” value in the assay on Rat intestinal maltase is on record as 16.0%; with β-Mannosidase (Snail), 0%; in assay [4], 18.8%; with β-Glucosidase (Almond), 15.3%; in assay [7] it was 15.9%. Besides, the inhibition at 1000 µM in assay [1] (setting [8]) was 0%; in [1] (read-out: IC50), under 50%; in assay [3] (setting [8]) it was 2.3%; in assay [3] (read-out: IC50), under 50%; at α-Glucosidase (Rice) (setting [8]), 0%; at α-Glucosidase (Rice) (read-out: IC50), under 50%. Besides, the inhibition at 1000 µM in assay [5] (setting [8]) is 5.6%; in [5] (read-out: IC50) it was under 50%; in assay [6] (setting [8]), 0%; in assay [6] (read-out: IC50) it was under 50%.
